The test system of this assay is HeLa. The assay can be described thus: Cytotoxicity against human HeLa S3 cells. It is filed as functional, cell-based.

From ChEMBL document CHEMBL1155095, “Synthesis and cytotoxicity of aurilide analogs” (Bioorg Med Chem Lett, 2008) come the findings set out here.

Values after ≈ are worked out from the molar mass of the structure shown.

For the compound `CC/C=C(\C)[C@H]1OC(=O)[C@H](C)N(C)C(=O)[C@@H](C(C)C)NC(=O)CN(C)C(=O)[C@@H](CC(C)C)N(C)C(=O)[C@H](C(C)C)NC(=O)[C@@H]([C@@H](C)CC)OC(=O)/C(C)=C/C[C@H](O)[C@@H]1C`, the 50% inhibitory concentration (IC50) is above 4 µg/mL.

Turning to `CC/C=C(\C)[C@H]1OC(=O)[C@H](C)N(C)C(=O)[C@H](C(C)C)NC(=O)CN(C)C(=O)[C@@H](CC(C)C)N(C)C(=O)[C@H](CCCCNC(=O)OC(C)(C)C)NC(=O)[C@@H]([C@@H](C)CC)OC(=O)/C(C)=C/C[C@H](O)[C@@H]1C`, the midpoint of inhibition, the IC50, lay at 0.032 µg/mL (≈ 0.0332 µM).

In turn, `CC/C=C(\C)[C@H]1OC(=O)[C@H](C)N(C)C(=O)[C@H](C(C)C)NC(=O)CN(C)C(=O)[C@@H](CC(C)C)N(C)C(=O)[C@H](C(C)C)NC(=O)[C@@H]([C@@H](C)CC)OC(=O)/C(C)=C/C[C@H](OC(=O)CCCCCNC(=O)OCC2c3ccccc3-c3ccccc32)[C@@H]1C` registered a concentration for half-maximal inhibition (IC50) of 0.42 µg/mL (≈ 0.359 µM).

In the case of `CC/C=C(\C)[C@H]1OC(=O)[C@H](C)N(C)C(=O)[C@H](CCCCNC(=O)OC(C)(C)C)NC(=O)CN(C)C(=O)[C@@H](CC(C)C)N(C)C(=O)[C@H](C(C)C)NC(=O)[C@@H]([C@@H](C)CC)OC(=O)/C(C)=C/C[C@H](O)[C@@H]1C`, half-maximal inhibition (IC50) required 0.26 µg/mL (≈ 0.27 µM).

In the case of `CC/C=C(\C)[C@H]1OC(=O)[C@H](CCCCNC(=O)OC(C)(C)C)N(C)C(=O)[C@H](C(C)C)NC(=O)CN(C)C(=O)[C@@H](CC(C)C)N(C)C(=O)[C@H](C(C)C)NC(=O)[C@@H]([C@@H](C)CC)OC(=O)/C(C)=C/C[C@H](O)[C@@H]1C`, half-maximal inhibition (IC50) was put at 0.02 µg/mL (≈ 0.0202 µM).

The compound `CC/C=C(\C)[C@H]1OC(=O)[C@H](C)N(C)C(=O)[C@H](C(C)C)NC(=O)CN(C)C(=O)[C@@H](CC(C)C)N(C)C(=O)[C@H](C(C)C)NC(=O)[C@@H]([C@@H](C)CC)OC(=O)/C(C)=C/C[C@H](OC(=O)CCCCCNC(=O)CCC(=O)O)[C@@H]1C` had a half-maximal inhibitory concentration (IC50) of 0.14 µg/mL (≈ 0.134 µM).

`CC/C=C(\C)[C@H]1OC(=O)[C@H](C)N(C)C(=O)[C@@H](C(C)C)NC(=O)CN(C)C(=O)[C@@H](CC(C)C)N(C)C(=O)[C@H](C(C)C)NC(=O)[C@@H]([C@@H](C)CC)OC(=O)/C(C)=C/C[C@H](OC(=O)CCCCCNC(=O)CCC(=O)O)[C@@H]1C` came in with an IC50 above 10 µg/mL.

`CC/C=C(\C)[C@H]1OC(=O)[C@H](C)N(C)C(=O)[C@H](C(C)C)NC(=O)CN(C)C(=O)[C@@H](CC(C)C)N(C)C(=O)[C@H](C(C)C)NC(=O)[C@@H]([C@@H](C)CC)OC(=O)/C(C)=C/C[C@H](O)[C@@H]1C` [AURILIDE]: half-maximal inhibition (IC50) was put at 0.0024 µg/mL (≈ 0.00288 µM).

In the case of `CC/C=C(\C)[C@H]1OC(=O)[C@H](C)N(C)C(=O)[C@H](C(C)C)NC(=O)CN(C)C(=O)[C@@H](CC(C)C)N(C)C(=O)[C@H](C(C)C)NC(=O)[C@@H]([C@@H](C)CC)OC(=O)/C(C)=C/CC[C@@H]1C` [DEOXYAURILIDE], the half-maximal inhibitory concentration (IC50) was found to be 0.017 µg/mL (≈ 0.0208 µM).

The term IC50 denotes the point on the concentration scale where inhibition reaches its midpoint.
